Reference: patent US20080286335A1, “Enhancement Of The Calcium Sensing Receptor” (Smith & Nephew, Inc., priority 2007, published 2008)

What was measured:
mouse calvarial cells [1] = assay: Von Kossa staining (mineralised matrix) of mouse calvarial cell monolayers; assay type: cell-based; conditions: compared to 2.5 mM CaCl2 alone
Procedure: (§1) Osteoblastic cells were isolated from mouse calvarial tissue dissected from the heads of 2-3 day old freshly slaughtered mice pups using sequential enzymatic digestion. Cells were maintained in DMEM+10% Foetal Bovine Serum (FBS) at 37° C./5% CO2 in order to expand the cells before experimental use. Human dermal fibroblasts (HDFs) were used in experiments as an additional negative control.
Cells were seeded into 24 well plates at a concentration of 5×10^4 cells/well in αMEM+10% FBS (n=6). Experiments were set up to examine the amount of mineralisation at two different concentrations of calcium chloride (CaCl2) (1.8 mM and 2.5 mM) with and without L-amino acids (L-phenylalanine and L-tryptophan at 2.5 mM). Cells were cultured at 37° C./5% CO2 with media changes three times a week. […] Alizarin red stained monolayers were destained and the stain quantified spectophotometrically, whilst the Von Kossa staining was quantified using image analysis.

mouse calvarial cells [2] = assay: Alizarin red staining (calcium deposition) of mouse calvarial cell monolayers; assay type: cell-based; conditions: 2.5 mM amino acid with 2.5 mM CaCl2, 2 week period, compared to 2.5 mM CaCl2 alone, FIG. 1 and 2
Procedure: as §1
Cells were seeded into 24 well plates at a concentration of 5×10^4 cells/well in αMEM+10% FBS (n=6). Experiments were set up to examine the amount of mineralisation at two different concentrations of calcium chloride (CaCl2) (1.8 mM and 2.5 mM) with and without L-amino acids (L-phenylalanine and L-tryptophan at 2.5 mM). Cells were cultured at 37° C./5% CO2 with media changes three times a week. After 2 weeks and 3 weeks, the monolayers were stained to show the extent of mineralisation using Alizarin red (calcium deposition) and after 4 weeks with Von Kossa (mineralised matrix). Alizarin red stained monolayers were destained and the stain quantified spectophotometrically, whilst the Von Kossa staining was quantified using image analysis.

Row | Structure (SMILES) | amount of mineralised matrix (mouse calvarial cells [1]; 2.5 mM L-Phe with 2.5 mM CaCl2, 2 week period, Von Kossa image analysis, FIG. 4) | amount of mineralised matrix (mouse calvarial cells [1]; 2.5 mM L-Phe with 2.5 mM CaCl2, 4 week period, Von Kossa staining, FIG. 3) | calcium deposition (mouse calvarial cells [2])
1 | N[C@@H](Cc1ccccc1)C(=O)O [L-Phe, L-phenylalanine] | significantly increases | significantly increases | significantly increases
2 | N[C@@H](Cc1c[nH]c2ccccc12)C(=O)O [L-Trp, L-tryptophan] | – | – | significantly increases
